Paper PMC11650766 (ACS Infectious Diseases, 2024)

Key:
Experiment in all cases: iSPP stabilization in E. coli K12 lysate at […], LC-MS/MS
Format in all cases: cell-based
[1] = target: RpoB (RNA polymerase β-subunit) (Escherichia coli, UniProt P0A8V2)
PBP1a (MrcA) = target: T1, PBP1a (MrcA) (Escherichia coli, UniProt P02918)
T1 sequence (P02918 1-850): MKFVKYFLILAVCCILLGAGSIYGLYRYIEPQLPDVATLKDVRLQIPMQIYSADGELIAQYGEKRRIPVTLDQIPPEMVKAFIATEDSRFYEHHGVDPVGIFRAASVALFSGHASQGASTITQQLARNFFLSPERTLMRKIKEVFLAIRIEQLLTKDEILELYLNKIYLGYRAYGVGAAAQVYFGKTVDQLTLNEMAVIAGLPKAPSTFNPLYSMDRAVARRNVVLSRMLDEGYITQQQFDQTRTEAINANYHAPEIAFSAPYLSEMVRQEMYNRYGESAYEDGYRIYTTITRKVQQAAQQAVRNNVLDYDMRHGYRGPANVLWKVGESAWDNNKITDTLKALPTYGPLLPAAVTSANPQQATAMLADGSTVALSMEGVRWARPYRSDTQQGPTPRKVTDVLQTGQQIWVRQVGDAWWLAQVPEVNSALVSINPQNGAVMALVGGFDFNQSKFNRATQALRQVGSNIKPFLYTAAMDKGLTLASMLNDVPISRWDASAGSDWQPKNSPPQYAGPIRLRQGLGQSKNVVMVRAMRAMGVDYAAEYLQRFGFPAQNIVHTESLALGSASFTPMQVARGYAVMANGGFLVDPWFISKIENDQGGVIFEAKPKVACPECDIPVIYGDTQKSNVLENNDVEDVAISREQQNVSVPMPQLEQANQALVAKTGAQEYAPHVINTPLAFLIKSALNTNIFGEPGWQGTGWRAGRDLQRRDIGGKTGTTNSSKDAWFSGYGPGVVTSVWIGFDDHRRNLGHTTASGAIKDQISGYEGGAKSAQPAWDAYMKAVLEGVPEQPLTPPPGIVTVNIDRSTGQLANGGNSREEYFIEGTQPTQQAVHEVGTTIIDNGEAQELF

PBP4 (DacB) = PBP4 (DacB) (Escherichia coli, UniProt P24228)
Sequence of PBP4 (DacB) (P24228 21-477): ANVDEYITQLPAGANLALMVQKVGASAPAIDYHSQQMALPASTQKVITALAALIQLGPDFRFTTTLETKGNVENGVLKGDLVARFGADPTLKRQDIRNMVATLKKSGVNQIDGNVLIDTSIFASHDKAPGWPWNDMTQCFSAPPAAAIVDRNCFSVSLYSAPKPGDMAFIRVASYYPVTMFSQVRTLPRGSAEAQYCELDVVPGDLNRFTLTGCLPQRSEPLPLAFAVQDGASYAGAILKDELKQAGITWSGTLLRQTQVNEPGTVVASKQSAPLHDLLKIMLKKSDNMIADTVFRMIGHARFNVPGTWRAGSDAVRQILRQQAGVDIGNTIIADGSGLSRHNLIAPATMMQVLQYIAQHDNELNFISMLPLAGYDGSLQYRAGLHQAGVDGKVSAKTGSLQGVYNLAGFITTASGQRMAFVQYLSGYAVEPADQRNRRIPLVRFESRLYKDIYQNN

Sequence of RpoB (RNA polymerase β-subunit) (P0A8V2 whole entry): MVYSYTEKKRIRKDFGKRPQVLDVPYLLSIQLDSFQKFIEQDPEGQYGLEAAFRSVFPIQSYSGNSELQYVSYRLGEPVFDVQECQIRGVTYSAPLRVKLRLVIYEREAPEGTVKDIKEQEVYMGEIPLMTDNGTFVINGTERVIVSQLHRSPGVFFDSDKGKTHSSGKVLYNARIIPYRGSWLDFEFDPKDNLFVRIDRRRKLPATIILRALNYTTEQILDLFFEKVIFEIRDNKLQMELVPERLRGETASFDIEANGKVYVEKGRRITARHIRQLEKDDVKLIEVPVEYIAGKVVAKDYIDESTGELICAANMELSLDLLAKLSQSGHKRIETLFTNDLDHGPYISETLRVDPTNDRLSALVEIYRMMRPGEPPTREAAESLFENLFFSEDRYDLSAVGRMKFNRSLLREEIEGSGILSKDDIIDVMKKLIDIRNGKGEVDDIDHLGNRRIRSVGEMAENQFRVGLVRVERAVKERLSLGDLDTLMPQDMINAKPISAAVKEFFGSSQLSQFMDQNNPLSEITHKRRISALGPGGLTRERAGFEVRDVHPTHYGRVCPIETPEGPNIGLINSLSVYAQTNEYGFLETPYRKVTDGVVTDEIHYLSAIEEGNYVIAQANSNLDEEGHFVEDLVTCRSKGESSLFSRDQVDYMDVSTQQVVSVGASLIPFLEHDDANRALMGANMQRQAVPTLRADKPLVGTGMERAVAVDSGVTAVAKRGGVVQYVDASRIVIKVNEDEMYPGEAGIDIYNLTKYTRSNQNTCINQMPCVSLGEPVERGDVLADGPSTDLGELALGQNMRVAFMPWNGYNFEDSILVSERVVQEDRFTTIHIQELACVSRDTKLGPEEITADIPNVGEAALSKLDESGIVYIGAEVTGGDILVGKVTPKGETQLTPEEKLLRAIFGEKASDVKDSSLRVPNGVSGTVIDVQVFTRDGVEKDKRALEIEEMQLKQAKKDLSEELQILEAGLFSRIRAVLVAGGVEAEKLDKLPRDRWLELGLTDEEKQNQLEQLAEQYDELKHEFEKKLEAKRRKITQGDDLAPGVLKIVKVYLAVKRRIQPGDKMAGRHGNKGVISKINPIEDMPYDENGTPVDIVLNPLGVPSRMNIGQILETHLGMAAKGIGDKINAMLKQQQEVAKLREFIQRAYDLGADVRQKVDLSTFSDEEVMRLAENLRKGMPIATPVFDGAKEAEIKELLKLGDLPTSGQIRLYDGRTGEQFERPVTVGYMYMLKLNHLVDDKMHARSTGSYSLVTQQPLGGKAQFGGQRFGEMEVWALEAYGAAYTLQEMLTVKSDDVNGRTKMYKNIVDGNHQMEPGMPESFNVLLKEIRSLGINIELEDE
Sequence of RpoB (RNA polymerase β-subunit) (P0A8T7 whole entry partner): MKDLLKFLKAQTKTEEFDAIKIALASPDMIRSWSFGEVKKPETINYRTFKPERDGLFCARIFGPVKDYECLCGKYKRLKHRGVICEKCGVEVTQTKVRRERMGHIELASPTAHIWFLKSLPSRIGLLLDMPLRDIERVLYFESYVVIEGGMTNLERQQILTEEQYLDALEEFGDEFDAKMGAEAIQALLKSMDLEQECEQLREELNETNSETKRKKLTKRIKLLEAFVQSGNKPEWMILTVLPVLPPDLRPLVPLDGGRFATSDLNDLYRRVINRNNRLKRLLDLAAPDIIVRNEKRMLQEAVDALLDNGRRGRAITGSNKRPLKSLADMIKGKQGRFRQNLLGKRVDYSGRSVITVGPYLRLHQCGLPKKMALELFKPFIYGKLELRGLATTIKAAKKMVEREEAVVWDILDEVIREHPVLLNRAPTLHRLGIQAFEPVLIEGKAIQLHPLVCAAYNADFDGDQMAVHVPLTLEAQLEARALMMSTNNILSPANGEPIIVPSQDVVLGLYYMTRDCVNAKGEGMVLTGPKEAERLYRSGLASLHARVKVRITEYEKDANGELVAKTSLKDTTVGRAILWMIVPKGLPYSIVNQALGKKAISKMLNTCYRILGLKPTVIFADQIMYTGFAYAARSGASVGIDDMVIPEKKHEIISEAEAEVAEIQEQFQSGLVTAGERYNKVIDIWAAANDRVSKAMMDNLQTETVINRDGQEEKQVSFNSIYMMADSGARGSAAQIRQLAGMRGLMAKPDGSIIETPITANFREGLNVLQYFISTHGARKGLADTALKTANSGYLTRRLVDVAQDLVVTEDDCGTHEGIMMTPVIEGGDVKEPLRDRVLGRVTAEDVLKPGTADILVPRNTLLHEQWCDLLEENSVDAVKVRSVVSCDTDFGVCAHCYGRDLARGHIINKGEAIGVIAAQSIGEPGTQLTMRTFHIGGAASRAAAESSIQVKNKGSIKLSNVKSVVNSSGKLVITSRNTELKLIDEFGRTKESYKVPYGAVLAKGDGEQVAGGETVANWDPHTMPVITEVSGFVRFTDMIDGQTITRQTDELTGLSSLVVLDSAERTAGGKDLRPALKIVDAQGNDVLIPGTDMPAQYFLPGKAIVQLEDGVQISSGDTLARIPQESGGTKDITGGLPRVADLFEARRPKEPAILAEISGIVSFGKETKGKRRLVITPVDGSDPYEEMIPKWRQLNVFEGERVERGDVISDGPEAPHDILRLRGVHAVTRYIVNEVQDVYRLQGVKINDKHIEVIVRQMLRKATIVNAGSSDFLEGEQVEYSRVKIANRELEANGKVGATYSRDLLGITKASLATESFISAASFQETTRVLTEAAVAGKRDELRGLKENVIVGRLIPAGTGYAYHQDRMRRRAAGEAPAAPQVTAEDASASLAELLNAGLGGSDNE
Sequence of RpoB (RNA polymerase β-subunit) (P0A7Z4 whole entry partner): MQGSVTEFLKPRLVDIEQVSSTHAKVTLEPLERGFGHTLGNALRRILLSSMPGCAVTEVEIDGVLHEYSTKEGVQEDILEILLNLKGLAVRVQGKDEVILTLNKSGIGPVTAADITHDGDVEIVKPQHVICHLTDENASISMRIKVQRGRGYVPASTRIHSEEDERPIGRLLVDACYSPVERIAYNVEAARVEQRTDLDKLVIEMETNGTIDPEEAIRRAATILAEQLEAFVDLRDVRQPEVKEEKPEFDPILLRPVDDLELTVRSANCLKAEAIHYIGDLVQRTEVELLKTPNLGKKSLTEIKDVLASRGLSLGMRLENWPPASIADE

## CO[C@H]1/C=C/O[C@@]2(C)Oc3c(C)c(O)c4c(O)c(c(/C=N/N5CCN(C)CC5)c(O)c4c3C2=O)NC(=O)/C(C)=C\C=C\[C@H](C)[C@H](O)[C@@H](C)[C@@H](O)[C@@H](C)[C@H](OC(C)=O)[C@@H]1C [rifampicin]
[1]
  iSPP stabilization in E. coli K12 lysate at 10 μM, LC-MS/MS: for rifampicin, we observed (Figure 2A) the stabilization of other subunits within the RNAP complex in addition to the primary target RpoB

## CC1(C)S[C@@H]2[C@H](NC(=O)[C@H](N)c3ccccc3)C(=O)N2[C@H]1C(=O)O [ampicillin]
PBP1a (MrcA)
  iSPP stabilization in E. coli K12 lysate at 10 μM, LC-MS/MS: Ampicillin led to a significant stabilization of PBP1a (MrcA) and PBP4 (DacB), the two top hits
PBP4 (DacB)
  iSPP stabilization in E. coli K12 lysate at 10 μM, LC-MS/MS: Ampicillin led to a significant stabilization of PBP1a (MrcA) and PBP4 (DacB), the two top hits
